Reference: patent US20210283111A1, “Methods of Inhibiting Osteoclastogenesis and Osteoclast Activity” (vTv Therapeutics LLC, priority 2018, published 2021)
Entries after “also recorded” stand apart in the source; their conditions may differ.

Key:
[1] = system: RANKL-mediated osteoclastogenesis in RAW264.7 cells; assay: Osteoclastogenesis assay: TRAP staining of RANKL-stimulated RAW264.7 cells; type: cell-based, Mouse; conditions: for No. of TRAP-positive multinucleated cells (Cells/Well): RANKL 100 ng/mL + compound 400 nM, 4 days, Control 0.00, RANKL alone 140.00; for effect on number of TRAP-positive multinucleated cells / RANKL-mediated osteoclastogenesis: RANKL 100 ng/mL, compound 400 nM
Method: Cells were plated on 96-well plates (RAW264.7 cells: 10^3 cells/well) in triplicate in the presence or absence of recombinant RANKL (100 ng/ml) with or without the test compounds. After 4 days culture, cells were stained for tartrate-resistant acid phosphatase (TRAP) using an acid phosphatase kit (Sigma-Aldrich, St. Louis, Mo.). Dark red multinucleated cells (>3 nuclei) were counted as TRAP-positive multinucleated cells.

[2] = system: osteoclast marker genes (Atp6v0d2, Trap, Mmp9, Cathepsin K, Dcstamp, and Oscar) in RANKL-stimulated RAW 264.7 cells; assay: Real-time RT-PCR of osteoclast marker gene expression; type: cell-based, Mouse; conditions: RAW264.7 cells, RANKL + compound 400 nM; for Dcstamp Fold Change from Control (Ave) / ATP6vd2 Fold Change from Control (Ave) / Cathepsin K Fold Change from Control (Ave) / Oscar Fold Change from Control (Ave) / Mmp9 Fold Change from Control (Ave) / TRAP Fold Change from Control (Ave): 4 days; for Dcstamp Fold Change from Control (Ave): Control 1.00, RANKL alone 4.32; for ATP6vd2 Fold Change from Control (Ave): Control 1.00, RANKL alone 4.69; for Cathepsin K Fold Change from Control (Ave): Control 1.00, RANKL alone 7.83; for Oscar Fold Change from Control (Ave): Control 1.00, RANKL alone 23.88; for Mmp9 Fold Change from Control (Ave): Control 1.00, RANKL alone 42.90; for TRAP Fold Change from Control (Ave): Control 1.00, RANKL alone 132.47
Method: (§1) RNA was extracted from RAW264.7 cells using the GenElute mammalian total RNA Miniprep kit (Sigma-Aldrich, St. Louis, Mo.) with on-column genomic DNA digestion according to the manufacturer's instructions. For antioxidant gene expression analysis, RNA was extracted at 1 day after test compound treatment, and the gene expressions of HMOX1 and NQO1 was analyzed. For osteoclast marker gene expression analysis, RNA was extracted at 4 days after RANKL stimulation, and the gene expressions of Atp6v0d2, Cathepsin K, Matrix metalloproteinase 9, Trap, Dcstamp, and Oscar were analyzed. After measurement of the RNA concentration, isolated RNA (500 ng each) was reverse transcribed with iScript cDNA-Supermix (Bio-Rad Laboratories, Hercules, Calif.). Real-time RT-PCR was performed with SsoFast EvaGreen-Supermix (Bio-Rad Laboratories). PCR primers used in the experiments were from PrimerBank and were described in H. Kanzaki, et al. “The Keap1/Nrf2 protein axis plays a role in osteoclast differentiation by regulating intracellular reactive oxygen species signaling,” The Journal of Biological Chemistry 288(32) (2013) 23009-20. Fold changes of gene of interest were calculated by using the […] method with ribosomal protein S18 as reference gene. Data shown are representative of 3 independent experiments performed in triplicate.

[3] = system: RANKL-stimulated RAW264.7 cells; assay: Resorption assay on bone resorption assay plate (calcium phosphate substrate); type: cell-based, Mouse; conditions: for Ave of Resorbed Area per Filed (%): RANKL 100 ng/mL + compound 400 nM, 7 days, Control 0.00, RANKL alone 1.14; for effect on resorption areas: RANKL + compound 400 nM
Method: RAW264.7 cells were plated on synthesized calcium phosphate substrate (bone resorption assay plate; PG Research, Tokyo, Japan) and stimulated with RANKL in the presence or absence of test compounds. After 7 days of cultivation, cells were removed with bleach, and the calcium phosphate substrate was washed with distilled water and then dried. Photographs were taken, and the average of the resorbed area per field was calculated from 12 images of each sample, using ImageJ software (National Institutes of Health, Bethesda).

[4] = system: HMOX1 and NQO1 in RAW264.7 cells; assay: Real-time RT-PCR of antioxidant gene expression; type: cell-based, Mouse; conditions: 400 nM
Method: as §1

[5] = system: RANKL-triggered intracellular ROS production in RAW264.7 cells; assay: Intracellular ROS detection by flow cytometry (BES-So-AM); type: cell-based, Mouse; conditions: pretreated 1 h, RANKL 6 h
Method: Cells were pretreated with or without Compound HPP-4 for 1 h, stimulated with soluble RANKL for 6 h, washed with PBS, and collected. Cells were then incubated with fluorescent superoxide probe (BES-So-AM; Wako Pure Chemical) on ice. After washing, intracellular ROS was detected using an AccuriC6 flow cytometer (BD Biosciences, San Jose, Calif., USA). The viable monocyte/macrophage fraction was gated on a forward scatter/side scatter plot, and ROS levels were monitored in the FL-1 channel. Data shown are representative of 3 independent experiments performed in triplicated.

[6] = system: LPS-mediated bone destruction in mice calvaria; assay: In vivo bone destruction model (LPS-induced calvarial bone destruction, μCT); design: species or system BALB/c mice
Method: The animal experimental protocol was reviewed and approved by the Institutional Animal Care and Use committee, Tsurumi University (approval number; 28A030). All animals were treated ethically, and animal experiments were performed in compliance with the Regulations for Animal Experiments and Related Activities at Tsurumi University. The calvarial bone destruction mouse model, induced by repeated LPS injections. Twenty 7-week-old male BALB/c mice (Clea Japan, Tokyo, Japan) were used. Mice were randomly assigned to four groups (n=5 each): a Dimethyl sulfoxide (DMSO)-injected group (control group; 10 μl PBS+2 μl DMSO), a HPP-4-injected group (HPP-4 group; 10 μl PBS+2 μl of Cpd. HPP-4 2 μM), an LPS-induced bone resorption group (LPS group; 10 μl of 1 μg/μl LPS+2 μl DMSO) and an LPS-induced bone resorption and Cpd. HPP-4-injected group (LPS+HPP-4 group; 10 μl of 1 μg/μl LPS+2 μl of HPP-4 2 μM), Injections were performed under anaesthesia with a 30-gauge needle at a point on the midline of the skull located between the eyes on days 1, 3, 5, 7, and 9. On day 11, mice were sacrificed by cervical dislocation and cranial tissue samples were fixed overnight with 4% paraformaldehyde in PBS.
Fixed cranial tissue samples were subsequently scanned with an X-ray microcomputed tomography […] system (inspeXio SMX-225CT; Shimadzu Corp., Kyoto, Japan). After reconstitution, the DICOM files were rendered into three-dimensional images using Pluto software. Percentage of resorbed area, calculated from the ratio of the number of pixels in the resorbed area in the cranial bone to the number of pixels in the total analyzed image of the cranial bone, was calculated with the ImageJ software. The region of interest was set between the fronto-parietal (coronal) suture and parietooccipital (lambdoidal) suture.

| Structure (SMILES) | No. of TRAP-positive multinucleated cells (Cells/Well) [1] | effect on number of TRAP-positive multinucleated cells / RANKL-mediated osteoclastogenesis [1] | RANKL-mediated upregulation of osteoclast marker genes [2] | difference from RANKL alone in Atp6v0d2, Mmp9, and Oscar expression [2] | Dcstamp Fold Change from Control (Ave) [2] | ATP6vd2 Fold Change from Control (Ave) [2] | Cathepsin K Fold Change from Control (Ave) [2] | Oscar Fold Change from Control (Ave) [2] | Mmp9 Fold Change from Control (Ave) [2] | TRAP Fold Change from Control (Ave) [2] | Ave of Resorbed Area per Filed (%) [3] | effect on resorption areas [3] | HMOX1 Fold Change from Control (Ave) ([4]; 1 day, Control 1.00) | NQO1 Fold Change from Control (Ave) ([4]; 1 day, Control 1.00) | expression of antioxidant enzymes NQO1 and HMOX1 ([4]; p<0.05 relative to control) | RANKL-mediated increase in intracellular ROS (superoxide) [5] | LPS-mediated bone destruction ([6]; local injection of HPP-4, μCT) | Percent Resorbed (%), HPP-4 alone ([6]; local injection of HPP-4 without LPS on days 1, 3, 5, 7, 9, μCT day 11, Control 0.15) | Percent Resorbed (%), LPS + HPP-4 ([6]; local injection of LPS + HPP-4 on days 1, 3, 5, 7, 9, μCT day 11, Control 0.15, LPS alone 4.27) |
| --- | --- | --- | --- | --- | --- | --- | --- | --- | --- | --- | --- | --- | --- | --- | --- | --- | --- | --- | --- |
| COCCNC(=O)c1cnc2c(c1)nc(Nc1nc3ccc(OC(F)(F)F)cc3s1)n2C [HPP-1, 3-Methyl-2-(6-trifluoromethoxy-benzothiazol-2-ylamino)-3H-imidazo[4,5-b]pyridine-6-carboxylic acid (2-methoxy-ethyl)-amide] | 139.33 Cells/Well | no effect | weak suppression | no significant differences | 3.33 Fold Change from Control | 3.52 Fold Change from Control | 5.96 Fold Change from Control | 20.22 Fold Change from Control | 39.73 Fold Change from Control | 106.62 Fold Change from Control | 1.21% | – | – | – | – | – | – | – | – |
| CN(C)C(=O)CNC(=O)c1ccc2c(c1)nc(Nc1nc3ccc(C(F)(F)F)cc3s1)n2C [HPP-2, 1-Methyl-2-(6-trifluoromethyl-benzothiazol-2-ylamino)-1H-benzimidazole-5-carboxylic acid dimethylcarbamoylmethyl-amide] | 97.67 Cells/Well | no effect | suppressed | – | 2.55 Fold Change from Control | 3.09 Fold Change from Control | 4.42 Fold Change from Control | 10.03 Fold Change from Control | 24.02 Fold Change from Control | 73.81 Fold Change from Control | 0.78% | – | – | – | – | – | – | – | – |
| Cn1c(Nc2nc3ccc(C(F)(F)F)cc3s2)nc2cc(C(=O)NCCOCCO)ccc21 [HPP-4, 1-Methyl-2-(6-trifluoromethyl-benzothiazol-2-ylamino)-1H-benzoimidazole-5-carboxylic acid [2-(2-hydroxy-ethoxy)-ethyl]-amide] | 29.00 Cells/Well | decreased the number of TPAP-positive multinucleated cells to that of control | suppressed | – | 2.39 Fold Change from Control | 2.59 Fold Change from Control | 2.99 Fold Change from Control | 8.18 Fold Change from Control | 20.21 Fold Change from Control | 59.76 Fold Change from Control | 0.23% | reduced the resorption areas such that there was no significant difference from control | 1.62 Fold Change from Control | 2.67 Fold Change from Control | increased | inhibited | ameliorated LPS-induced bone destruction; also recorded: significantly inhibited LPS-mediated bone destruction | 0.42% | 1.84% |
| C[C@H](O)CNC(=O)c1ccc2c(c1)nc(Nc1nc3ccc(OC(F)(F)F)cc3s1)n2C [HPP-3, 1-Methyl-2-(6-trifluoromethoxy-benzothiazol-2-ylamino)-1H-benzoimidazole-5-carboxylic acid ((S)-2-hydroxy-propyl)-amide] | 65.00 Cells/Well | decreased | suppressed | – | 2.14 Fold Change from Control | 2.36 Fold Change from Control | 3.31 Fold Change from Control | 6.45 Fold Change from Control | 23.89 Fold Change from Control | 59.23 Fold Change from Control | 0.22% | reduced the resorption areas such that there was no significant difference from control | – | – | – | – | – | – | – |
